Reference: patent US11419878B2, “Medicine obtained by combining FXR agonist and ARB” (Intercept Pharmaceuticals, Inc., priority 2016, dated 2022)

Experiments:
[1] = system: human hepatic stellate cells (HHSC); test: HHSC proliferation inhibition, WST-1 cell proliferation assay; type: cell-based; details: AT-II 10^-6M + LPS 10^-5M; ARB 10^-6M, obeticholic acid 5×10^-6M; 24 hours; WST-1 absorbance
Procedure: The various combined effects of obeticholic acid and three types of ARBs (losartan, valsartan, and candesartan) were confirmed in an in vitro cell system experiment. Specifically, using human hepatic stellate cells (HHSC), which are implicated in the main mechanism of progression of hepatic fibrosis in NASH, the effects of administration of obeticholic acid in combination with the three ARBs of inhibiting HHSC proliferation capacity and the expression of fibrosis markers were evaluated according to the following method. Human hepatic stellate cells (HHSC) (also referred to as human hepatic star cells) Obeticholic acid (obtained from Intercept Pharmaceuticals, Inc. via Sumitomo Dainippon Pharma Co., Ltd.) was used as an FXR agonist, and commercial losartan (potassium salt of losartan; referred to in this working example simply as “losartan”) and valsartan and candesartan ([…] of candesartan; referred to in this working example simply as “candesartan”) were used as ARBs. […] The direct action of inhibiting HIISC proliferation capacity was evaluated by means of a cell proliferation assay using WST-1 reagent. […] AT-II (10^-6M) Positive control group L […]): LPS 10^-5M) Positive control group AL ([…]): (10^-6M)+LPS (10^-5M) Obeticholic acid administration (G3): AT-II (10^-6M)+LPS (10^-5M)+obeticholic acid (5×10^-6M) ARB administration (G4): AT-II (10^-6M)+LPS (10^-5M)+ARB (10^-6M) Obeticholic acid+ARB combined administration (G5): AT-II (10^-6M)+LPS (10^-5M)+obeticholic acid (5×10^-6M)+ARB (10^-6M) 3) After the cells of the above groups (G1, G2A, G2L, G2AL, G3, G4, G5) were cultured for 24 hours, respective WST-1 cell proliferation assays were conducted, and the inhibitory effect of the pharmaceutical agents on cell proliferation was evaluated. The inhibitory effect of valsartan and candesartan on HHSC proliferation was also evaluated according to steps 1)-3) above. […]

FXR = biological target: T1, FXR (Homo sapiens, UniProt Q96RI1); details: background statement; cited from earlier work
T1 sequence (Q96RI1 1-486): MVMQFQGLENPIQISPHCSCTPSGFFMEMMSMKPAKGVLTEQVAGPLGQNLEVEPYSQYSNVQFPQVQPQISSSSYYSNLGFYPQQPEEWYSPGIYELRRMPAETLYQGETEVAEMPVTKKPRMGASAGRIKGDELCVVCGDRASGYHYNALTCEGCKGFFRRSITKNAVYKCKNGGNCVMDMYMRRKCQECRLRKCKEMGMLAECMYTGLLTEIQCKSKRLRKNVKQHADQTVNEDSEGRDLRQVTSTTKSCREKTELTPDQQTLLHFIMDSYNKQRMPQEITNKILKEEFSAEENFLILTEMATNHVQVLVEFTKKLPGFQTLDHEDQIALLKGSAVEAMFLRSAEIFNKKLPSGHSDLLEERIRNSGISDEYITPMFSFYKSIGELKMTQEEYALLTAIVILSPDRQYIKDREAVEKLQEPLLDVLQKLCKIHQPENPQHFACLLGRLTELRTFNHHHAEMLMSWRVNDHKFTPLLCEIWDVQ

Row | Structure (SMILES) | promotion of activated HHSC proliferation by AT-II and LPS, compared to positive control group AL (G2AL) [1] | FXR agonist action / FXR-stimulating action (FXR)
1 | CCCCc1nc(Cl)c(CO)n1Cc1ccc(-c2ccccc2-c2nn[nH]n2)cc1 [losartan] | statistically significant inhibition | 
2 | CC[C@H]1[C@@H](O)[C@@H]2[C@H](CC[C@]3(C)[C@@H]([C@H](C)CCC(=O)O)CC[C@@H]23)[C@@]2(C)CC[C@@H](O)C[C@@H]12 [obeticholic acid, 3α,7α-dihydroxy-6α-ethyl-5β-cholan-24-oic acid] |  | strongest FXR-stimulating action among the semi synthetic alkylated bile acids
